From PubChem BioAssay (NCI)
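Assay format: 96-well plates, 48-hour exposure. GI50 marks 50% less growth. The concentration for full growth arrest is given as TGI.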

Tests used:
Assay in all cases: DTP human tumour cell line panel, 48 h
[1] = tested on: OVCAR-4 ovarian
[2] = tested on: MDA-MB-435
[3] = tested on: HCT-15 colon
[4] = tested on: BT-549 breast
[5] = tested on: UO-31 renal
[6] = tested on: SK-MEL-28 melanoma
[7] = tested on: SR leukemia
[8] = tested on: DU-145 prostate
[9] = tested on: CAKI-1 renal
[10] = tested on: HS 578T breast
[11] = tested on: NCI-H460 lung
[12] = tested on: OVCAR-8 ovarian
[13] = tested on: RXF 393 renal
[14] = tested on: SF-539 CNS
[15] = tested on: SNB-19 CNS
[16] = tested on: HCC-2998 colon
[17] = tested on: PC-3 prostate
[18] = tested on: MCF7 breast
[19] = tested on: NCI-H522 lung
[20] = tested on: LOX IMVI melanoma
[21] = tested on: UACC-62 melanoma
[22] = tested on: SNB-75 CNS
[23] = tested on: UACC-257 melanoma
[24] = tested on: COLO 205 colon
[25] = tested on: SW-620 colon
[26] = tested on: U251 CNS
[27] = tested on: IGROV1 ovarian
[28] = tested on: KM12 colon
[29] = tested on: EKVX NSCLC
[30] = tested on: SK-MEL-2 melanoma
[31] = tested on: 786-0 renal
[32] = tested on: HOP-62 NSCLC
[33] = tested on: TK-10 renal
[34] = tested on: K-562 leukemia
[35] = tested on: SN12C renal
[36] = tested on: SF-268 CNS
[37] = tested on: MOLT-4 leukemia
[38] = tested on: SF-295 CNS
[39] = tested on: MDA-MB-231 breast
[40] = tested on: M14 melanoma
[41] = tested on: HL-60(TB) leukemia
[42] = tested on: CCRF-CEM leukemia
[43] = tested on: NCI/ADR-RES ovarian
[44] = tested on: A498 renal
[45] = tested on: MALME-3M melanoma
[46] = tested on: HCT-116 colon
[47] = tested on: HT29 colon
[48] = tested on: SK-OV-3 ovarian
[49] = tested on: A549 NSCLC
[50] = tested on: NCI-H226 lung
[51] = tested on: NCI-H23 lung
[52] = tested on: ACHN renal
[53] = tested on: SK-MEL-5 melanoma
[54] = tested on: OVCAR-3 ovarian
[55] = tested on: OVCAR-5 ovarian
[56] = tested on: T-47D breast
[57] = tested on: HOP-92 NSCLC
[58] = tested on: RPMI-8226 leukemia

Work on `CCN(CC)CCOc1ccc2c(c1)C(=O)c1cc(OCCN(CC)CC)ccc1-2` yielded a GI50 [1] of 5.69 µM, a TGI [1] of 38.7 µM and a GI50 [2] of 12.9 µM. For the same compound, the TGI [2] was 27.7 µM, the GI50 [3] was 12.1 µM and the TGI [3] was 44.6 µM. The GI50 [4] was 20.4 µM, the TGI [4] was 46.5 µM and the GI50 [5] was 3520 nM. The TGI [5] was 26.3 µM, the GI50 [6] was 15.1 µM and the TGI [6] was 29.4 µM. The GI50 [7] was 2690 nM, the TGI [7] was 6.59 µM and the GI50 [8] was 14.8 µM. It also gave a TGI [8] of 81.5 µM, a GI50 [9] of 30.2 µM and a TGI [9] of over 100 µM. The GI50 [10] was 13.7 µM, the TGI [10] was 38 µM and the GI50 [11] was 4.03 µM. It also gave a TGI [11] of 15.2 µM, a GI50 [12] of 8 µM and a TGI [12] of 54 µM. The GI50 [13] was 10.2 µM, the TGI [13] was 24 µM and the GI50 [14] was 2.54 µM. It also gave a TGI [14] of 5.72 µM, a GI50 [15] of 26.3 µM and a TGI [15] of 61.7 µM. It also gave a GI50 [16] of 10 µM, a TGI [16] of 22.6 µM and a GI50 [17] of 5.64 µM. It also gave a TGI [17] of 26.2 µM, a GI50 [18] of 3.44 µM and a TGI [18] of 14.8 µM. It also gave a GI50 [19] of 12.4 µM, a TGI [19] of 27.5 µM and a GI50 [20] of 4.31 µM. For the same compound, the TGI [20] was 16.7 µM, the GI50 [21] was 12.4 µM and the TGI [21] was 26.7 µM. It also gave a GI50 [22] of 12.2 µM, a TGI [22] of 24.9 µM and a GI50 [23] of 11.5 µM. The TGI [23] was 24.9 µM, the GI50 [24] was 2560 nM and the TGI [24] was 9.38 µM. The GI50 [25] was 4.04 µM, the TGI [25] was 20.6 µM and the GI50 [26] was 8.73 µM. The TGI [26] was 31.3 µM, the GI50 [27] was 6.65 µM and the TGI [27] was 43.2 µM. The GI50 [28] was 5.36 µM, the TGI [28] was 24.9 µM and the GI50 [29] was 20 µM. The TGI [29] was 63.6 µM, the GI50 [30] was 11.3 µM and the TGI [30] was 24.4 µM. It also gave a GI50 [31] of 7.17 µM, a TGI [31] of 21.8 µM and a GI50 [32] of 8.12 µM. The TGI [32] was 28 µM, the GI50 [33] was 19.2 µM and the TGI [33] was 90.9 µM. For the same compound, the GI50 [34] was 3100 nM, the TGI [34] was 11.2 µM and the GI50 [35] was 12.6 µM. For the same compound, the TGI [35] was 45.1 µM, the GI50 [36] was 8.5 µM and the TGI [36] was 33.1 µM. It also gave a GI50 [37] of 5.27 µM, a TGI [37] of 23.9 µM and a GI50 [38] of 17.2 µM. The TGI [38] was 49.1 µM, the GI50 [39] was 10.4 µM and the TGI [39] was 33.8 µM. It also gave a GI50 [40] of 14 µM, a TGI [40] of 27.1 µM and a GI50 [41] of 3040 nM. The TGI [41] was 17.5 µM, the GI50 [42] was 4.81 µM and the TGI [42] was 21 µM. For the same compound, the GI50 [43] was 9.63 µM, the TGI [43] was 33.2 µM and the GI50 [44] was 16.5 µM. The TGI [44] was 37.5 µM, the GI50 [45] was 15.6 µM and the TGI [45] was 33.6 µM. It also gave a GI50 [46] of 3.45 µM, a TGI [46] of 15.2 µM and a GI50 [47] of 2580 nM. It also gave a TGI [47] of 10.4 µM, a GI50 [48] of 16.4 µM and a TGI [48] of 60.2 µM. For the same compound, the GI50 [49] was 6.4 µM, the TGI [49] was 32.9 µM and the GI50 [50] was 11.7 µM. It also gave a TGI [50] of 34.2 µM, a GI50 [51] of 11.9 µM and a TGI [51] of 27.5 µM. It also gave a GI50 [52] of 5.92 µM, a TGI [52] of 46.5 µM and a GI50 [53] of 12.2 µM. For the same compound, the TGI [53] was 24.6 µM, the GI50 [54] was 18.3 µM and the TGI [54] was 52.6 µM. The GI50 [55] was 35.6 µM, the TGI [55] was 69.7 µM and the GI50 [56] was 23.8 µM. For the same compound, the TGI [56] was 56.2 µM.

`COc1cc(-c2cc(/C=C3\C(=O)Nc4ccccc43)[nH]n2)cc(OC)c1OC` was tested, and the GI50 [1] was 1.91 µM, the TGI [1] was 8.98 µM and the GI50 [2] was 2.38 µM. It also gave a TGI [2] of 6.25 µM, a GI50 [3] of 2.57 µM and a TGI [3] of 10.1 µM. The GI50 [4] was 2.1 µM, the TGI [4] was 6.58 µM and the GI50 [5] was 1910 nM. For the same compound, the TGI [5] was 12.2 µM, the GI50 [6] was 2.95 µM and the TGI [6] was 11.3 µM. It also gave a GI50 [7] of 2890 nM, a TGI [7] of 14.8 µM and a GI50 [8] of 4.35 µM. It also gave a TGI [8] of 15.1 µM, a GI50 [10] of 5.43 µM and a TGI [10] of 62.8 µM. The GI50 [11] was 4.35 µM, the TGI [11] was 19 µM and the GI50 [12] was 2.5 µM. For the same compound, the TGI [12] was 7.48 µM, the GI50 [13] was 8.83 µM and the TGI [13] was 22.5 µM. For the same compound, the GI50 [14] was 3.49 µM, the TGI [14] was 16.3 µM and the GI50 [15] was 4.13 µM. It also gave a TGI [15] of 32.5 µM, a GI50 [16] of 13.1 µM and a TGI [16] of 29.4 µM. It also gave a GI50 [57] of 1970 nM, a TGI [57] of 9.12 µM and a GI50 [17] of 2.14 µM. The TGI [17] was 10 µM, the GI50 [18] was 2.77 µM and the TGI [18] was 11 µM. The GI50 [58] was 1770 nM, the TGI [58] was 4.37 µM and the GI50 [19] was 1.99 µM. The TGI [19] was 6.3 µM, the GI50 [20] was 2.43 µM and the TGI [20] was 7.94 µM. For the same compound, the GI50 [21] was 1.63 µM, the TGI [21] was 4.22 µM and the GI50 [22] was 1.18 µM. It also gave a TGI [22] of 10 µM, a GI50 [23] of 2.37 µM and a TGI [23] of 6.56 µM. The GI50 [24] was 2470 nM, the TGI [24] was 7.02 µM and the GI50 [25] was 3.33 µM. It also gave a TGI [25] of 18.9 µM, a GI50 [26] of 3.63 µM and a TGI [26] of 19.6 µM. It also gave a GI50 [27] of 3.14 µM, a TGI [27] of 14.8 µM and a GI50 [28] of 1.26 µM. The TGI [28] was 10.7 µM, the GI50 [30] was 2.27 µM and the TGI [30] was 5.57 µM. It also gave a GI50 [31] of 5.1 µM, a TGI [31] of 20.2 µM and a GI50 [32] of 3.2 µM. The TGI [32] was 14.9 µM, the GI50 [34] was 2650 nM and the TGI [34] was 11.5 µM. It also gave a GI50 [35] of 3.58 µM, a TGI [35] of 14.5 µM and a GI50 [36] of 3.76 µM. For the same compound, the TGI [36] was 17.2 µM, the GI50 [37] was 2.45 µM and the TGI [37] was 6.71 µM. The GI50 [38] was 2.84 µM, the TGI [38] was 11.6 µM and the GI50 [39] was 4.07 µM. It also gave a TGI [39] of 27.7 µM, a GI50 [40] of 2.29 µM and a TGI [40] of 7.17 µM. For the same compound, the GI50 [41] was 2620 nM, the TGI [41] was 7.66 µM and the GI50 [42] was 2.28 µM. For the same compound, the TGI [42] was 6.96 µM, the GI50 [43] was 2.33 µM and the TGI [43] was 6.67 µM. For the same compound, the GI50 [44] was 2.5 µM, the TGI [44] was 7.71 µM and the GI50 [45] was 2.28 µM. The TGI [45] was 7.47 µM, the GI50 [46] was 2.74 µM and the TGI [46] was 11.1 µM. The GI50 [47] was 3150 nM, the TGI [47] was 17.7 µM and the GI50 [48] was 5 µM. It also gave a TGI [48] of 26.7 µM, a GI50 [49] of 3.36 µM and a TGI [49] of 13 µM. It also gave a GI50 [50] of 2.43 µM, a TGI [50] of 15.5 µM and a GI50 [51] of 2.78 µM. For the same compound, the TGI [51] was 8.95 µM, the GI50 [52] was 2.5 µM and the TGI [52] was 12 µM. It also gave a GI50 [53] of 1.57 µM, a TGI [53] of 3.45 µM and a GI50 [54] of 3.21 µM. It also gave a TGI [54] of 14.5 µM, a GI50 [55] of 5.16 µM and a TGI [55] of 27.9 µM. The GI50 [56] was 1.74 µM and the TGI [56] was 6.99 µM.
